Measurements taken from patent publication US20250127790A1, “COMBINATION THERAPY USING VPS34 INHIBITORS” (Deciphera Pharmaceuticals, LLC, priority 2021, published 2025).

Experiments:
[1] = system: CT26 colorectal cancer cells; experiment: qRT-PCR, combination with cGAMP, CT26 cells; format: cell-based, Mouse; details: 24 hours, 5 μM Compound 1 or 10 μM Compound 2, 10 mg/mL cGAMP
Experimental: (§1) CT26 cells were treated for 24 hours with DMSO or VPS34 inhibitors (5 μM Compound 1 or 10 μM Compound 2) in combination with 10 mg/mL STING agonist cGAMP (green bars). Cells were washed with PBS and RNA was isolated using the PureLink RNA kit (#12183018A, Thermo Fisher Scientific) according to the manufacturer's protocol. Genomic DNA was removed using DNA-binding columns (RNeasy plus kit, #74134, Qiagen) and/or DNase treatment (#12185010, Thermo Fisher Scientific). RNA was quantified using NanoDrop (Thermo Fisher Scientific) and 50 ng/μL RNA was used for cDNA synthesis with SuperScript IV VILO Master Mix (#11756050, Thermo Fisher Scientific). Quantitative RT-PCR (qRT-PCR) was run with diluted cDNA (1:25 or 1:12.5), PowerUp SYBR Green Master Mix (#A25741, Thermo Fisher Scientific), and 200 nM primers (see below) on a CFX Connect RT-PCR system (BioRad). Data was analyzed using the ΔΔCT method. Results are mean±SEM of three independent experiments.

[2] = system: CT26 colorectal cancer cells; experiment: Cytokine secretion assay, combination with cGAMP, CT26 cells; format: cell-based, mouse; details: 24 hours, 5 μM Compound 1 or 10 μM Compound 2, 10 mg/mL cGAMP
Experimental: as §1
(§2) Cell culture medium was centrifuged at 1600 rpm for 10 min at 4° C. and obtained supernatant stored at −80° C. Cytokine levels were quantified using following Meso Scale Discovery (MSD) assays: mouse U-PLEX RANTES/CCL5 (#K152A2K) and U-PLEX IP-10/CXCL10 (#K152UFK). Assays were run on the SECTOR Quickplex Imager and analyzed using Discovery Workbench version 4.0 (MSD).

4T1 breast cancer cells [3] = experiment: qRT-PCR, combination with cGAMP, 4T1 cells; format: cell-based, Mouse; details: 24 hours, 5 μM Compound 1 or 10 μM Compound 2, 10 mg/ml cGAMP
Experimental: as §1, with “4T1” for “CT26”, “mg/ml” for “mg/mL”

4T1 breast cancer cells [4] = experiment: Cytokine secretion assay, combination with cGAMP, 4T1 cells; format: cell-based, mouse; details: 24 hours, 5 μM Compound 1 or 10 μM Compound 2, 10 mg/ml cGAMP
Experimental: as §1, with “4T1” for “CT26”, “mg/ml” for “mg/mL”
as §2

YUMM 1.7 melanoma cells [5] = experiment: qRT-PCR, combination with cGAMP, YUMM1.7 cells; format: cell-based, Mouse; details: 24 hours, 5 μM Compound 1 or 10 μM Compound 2, 10 mg/ml cGAMP
Experimental: as §1, with “YUMM1.7” for “CT26”, “mg/ml” for “mg/mL”

YUMM 1.7 melanoma cells [6] = experiment: Cytokine secretion assay, combination with cGAMP, YUMM1.7 cells; format: cell-based, mouse; details: 24 hours, 5 μM Compound 1 or 10 μM Compound 2, 10 mg/ml cGAMP
Experimental: as §1, with “YUMM1.7” for “CT26”, “mg/ml” for “mg/mL”
as §2

Nc1nc2c(ncn2[C@@H]2O[C@@H]3COP(=O)(O)O[C@H]4[C@@H](O)[C@H](n5cnc6c(N)ncnc65)O[C@@H]4COP(=O)(O)O[C@@H]2[C@@H]3O)c(=O)[nH]1 [cGAMP, reference compound]
increased: CCL5 mRNA expression [1] | CXCL10 mRNA expression [1] | CCL5 protein secretion [2] | CXCL10 protein secretion [2] | CCL5 mRNA expression (4T1 breast cancer cells [3]) | CXCL10 mRNA expression (4T1 breast cancer cells [3]) | CCL5 protein secretion (4T1 breast cancer cells [4]) | CXCL10 protein secretion (4T1 breast cancer cells [4]) | CCL5 mRNA expression (YUMM 1.7 melanoma cells [5]) | CXCL10 mRNA expression (YUMM 1.7 melanoma cells [5]) | CCL5 protein secretion (YUMM 1.7 melanoma cells [6]) | CXCL10 protein secretion (YUMM 1.7 melanoma cells [6])
